In patent US7146278B2, “Method of selecting marker molecules for prediction of molecular activity” (Accelrys Software Inc., priority 2001, dated 2006):

Test system: serum proteins
Test: Percent protein bound in serum (literature % PB data)
Conditions: binary class: highly protein bound (DTC) or not
Source text: Drugs may bind to a variety of components in the blood, including albumin, a1-acid glyciprotein (AAG), lipoproteins, immunoglobulins, sex hormone binding globulins, and erythrocytes. […] Some foreknowledge of the protein binding characteristics of a molecule would help provide a better estimate of the pharmacodynamics and pharmacokinetics of the molecule. […] In addition, hepatic extraction is directly proportional to fu. […] The maximum oral bioavailability is directly related to the hepatic extraction ratio, which is in part dependent upon the fu. Disease states causing significant drop in serum albumin, e.g. nephrotic syndrome, where serum albumin concentrations are halved, cause a corresponding 2-fold decrease in half-life for clofibrate.
Using the principles of predictive model development described herein, a model for classifying compounds as highly protein bound (>90% bound) or not highly protein bound (<90% bound) was created. The model development methods are thus described below using a protein binding model as one example application. The model development methods of the invention may also be applied to the creation of other prediction models, such as models to predict CYP450 metabolism, inhibition, and activation, as well as p-Glycoprotein efflux.
The method next advances to the process block 14 where a reference (“training”) set of molecules is classified according to the property of interest. The larger the training set of molecules is (>50 preferably), the better the method should perform. Preferably each of the molecules in the training set has a known binary classification for the property of interest. […] For illustration, an example training set of ten molecules for a protein binding prediction model may be as follows:
The method next advances to a process block 16, where a subset of the training set of molecules is chosen such that the subset includes the molecules in the training set that have the desired property of interest. In one embodiment, molecules in this subset are referred to as Desired Target Class (“DTC”) molecules.
The above simplified example includes 10 training dataset molecules. […] The following compounds were excluded because they lacked % PB values or belonged to an unusual structural class: atracurium, auranofin, azathioprine, bleomycin, bretylium, busulfan, capreomycin, carboplatin, carmustine, cisplatin, clemastine, dobutamine, enoxacin, ethanol, foscarnet, gold sodium thiomalate, isosorbide-5-mononitrate, isosorbide dinitrate, levodopa, levonorgestrel, methohexital, methylprednisolone, nalbuphine, naloxone, neostigmine, nitroglycerin, pancuronium, pipecuronium, prednisolone, prednisone, pyridostigmine, scopolamine, tubocurarine, vecuronium.
A test dataset was also assembled to verify model performance.
In the case of `CC(=O)CC(c1ccccc1)c1c(O)c2ccccc2oc1=O` (stereo not shown) [WARFARIN], the Classification is reported as 1 (highly protein bound (>90% bound)).
With `COc1ccc2cc([C@H](C)C(=O)O)ccc2c1` [NAPROXEN] the Classification was 1 (highly protein bound (>90% bound)).
For `CN1C(=O)CN=C(c2ccccc2)c2cc(Cl)ccc21` [DIAZEPAM], the Classification was 1 (highly protein bound (>90% bound)).
With `CC(N)C12CC3CC(CC(C3)C1)C2` (stereo not shown) [RIMANTADINE] the Classification was 0 (not highly protein bound (<90% bound)).
With `Clc1cccc(Cl)c1N=C1NCCN1` [CLONIDINE] the Classification was 0 (not highly protein bound (<90% bound)).
With `NCCCC[C@H](N[C@@H](CCc1ccccc1)C(=O)O)C(=O)N1CCC[C@H]1C(=O)O` [LISINOPRIL] the Classification was 0 (not highly protein bound (<90% bound)).
In the case of `CC(C(=O)O)c1ccc(-c2ccccc2)c(F)c1` (stereo not shown) [FLURBIPROFEN], the Classification is reported as 1 (highly protein bound (>90% bound)).
For `CN(C)c1ccc(O)c2c1C[C@H]1C[C@H]3[C@H](N(C)C)C(O)=C(C(N)=O)C(=O)[C@@]3(O)C(O)=C1C2=O` [MINOCYCLINE], the Classification was 0 (not highly protein bound (<90% bound)).
For `NS(=O)(=O)c1cc2c(cc1Cl)NCNS2(=O)=O` [HYDROCHLOROTHIAZIDE], the Classification was 0 (not highly protein bound (<90% bound)).
With `CCc1nc(N)nc(N)c1-c1ccc(Cl)cc1` [PYRIMETHAMINE] the Classification was 0 (not highly protein bound (<90% bound)).

Target: Human serum albumin (HSA) (Homo sapiens, UniProt P02768)
Sequence (P02768 25-609): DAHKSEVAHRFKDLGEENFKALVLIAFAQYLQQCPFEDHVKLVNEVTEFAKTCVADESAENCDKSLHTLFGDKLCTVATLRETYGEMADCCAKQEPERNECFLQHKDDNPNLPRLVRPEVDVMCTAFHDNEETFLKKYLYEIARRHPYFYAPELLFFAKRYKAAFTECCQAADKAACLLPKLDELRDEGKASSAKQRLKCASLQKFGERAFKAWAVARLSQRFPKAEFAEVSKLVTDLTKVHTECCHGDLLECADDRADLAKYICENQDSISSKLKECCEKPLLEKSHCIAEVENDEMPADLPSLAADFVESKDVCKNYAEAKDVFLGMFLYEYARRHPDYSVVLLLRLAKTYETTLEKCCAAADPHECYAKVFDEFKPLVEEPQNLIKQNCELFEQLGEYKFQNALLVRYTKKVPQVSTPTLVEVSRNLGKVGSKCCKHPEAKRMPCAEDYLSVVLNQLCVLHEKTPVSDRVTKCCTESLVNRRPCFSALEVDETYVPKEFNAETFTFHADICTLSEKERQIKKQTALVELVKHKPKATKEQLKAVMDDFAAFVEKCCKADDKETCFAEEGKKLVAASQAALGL
Test: not given
Conditions: site I warfarin site, site II benzodiazepines/NSAIDS site; cited from earlier work
For `CCCC(CCC)C(=O)O` [Valproic acid], the HSA binding site is given as “bind to both HSA Sites I and II”.
For `COC(=O)C(C)c1ccc(C(=O)c2cccs2)cc1` (stereo not shown) [suprofen methyl ester], the HSA binding site is given as “binds to HSA site I”.
For `CC(C(=O)O)c1ccc(C(=O)c2cccs2)cc1` (stereo not shown) [Suprofen], the HSA binding site is listed as “binds to HSA site II”.

Test system: not given
Test: not given
Conditions: nephrotic syndrome, serum albumin concentrations halved; cited from earlier work
For `CCOC(=O)C(C)(C)Oc1ccc(Cl)cc1` [CLOFIBRATE], the decrease in half-life is listed as 2 fold.

Test system: serum proteins
Test: not given
Conditions: example training set of ten molecules; cited from earlier work
For `CC(N)C12CC3CC(CC(C3)C1)C2` (stereo not shown) [RIMANTADINE], the “% Protein Bound” value is listed as 40.0%.
For `Clc1cccc(Cl)c1N=C1NCCN1` [CLONIDINE], the “% Protein Bound” value is given as 30.0%.
For `CC(C(=O)O)c1ccc(-c2ccccc2)c(F)c1` (stereo not shown) [FLURBIPROFEN], the “% Protein Bound” value is given as 99.5%.
In the case of `CN(C)c1ccc(O)c2c1C[C@H]1C[C@H]3[C@H](N(C)C)C(O)=C(C(N)=O)C(=O)[C@@]3(O)C(O)=C1C2=O` [MINOCYCLINE], the “% Protein Bound” value is listed as 76.0%.
For `NS(=O)(=O)c1cc2c(cc1Cl)NCNS2(=O)=O` [HYDROCHLOROTHIAZIDE], the “% Protein Bound” value is listed as 58.0%.
In the case of `CCc1nc(N)nc(N)c1-c1ccc(Cl)cc1` [PYRIMETHAMINE], the “% Protein Bound” value is given as 87.0%.

Same assay, conditions: marker molecules, training set from Goodman & Gilman 9th ed.; cited from earlier work
In the case of `CCCCNc1cc(C(=O)O)cc(S(N)(=O)=O)c1Oc1ccccc1` [BUMETANIDE], the “% PB” value is given as 99%.
In the case of `CCOC(=O)C1=C(C)NC(C)=C(C(=O)OC)C1c1cccc(Cl)c1Cl` (stereo not shown) [FELODIPINE], the “% PB” value is listed as 99.6%.
In the case of `NS(=O)(=O)c1cc(C(=O)O)c(NCc2ccco2)cc1Cl` [FUROSEMIDE], the “% PB” value is given as 98.8%.
For `O=c1n(CCCN2CCN(c3cccc(Cl)c3)CC2)nc2ccccn12` [TRAZODONE], the “% PB” value is listed as 93%.
For `CCC(C)n1ncn(-c2ccc(N3CCN(c4ccc(OCC5COC(Cn6cncn6)(c6ccc(Cl)cc6Cl)O5)cc4)CC3)cc2)c1=O` (stereo not shown) [ITRACONAZOLE], the “% PB” value is listed as 99.8%.
In the case of `CCOC(=O)[C@H](CCc1ccccc1)N[C@H]1CCc2ccccc2N(CC(=O)O)C1=O` [BENAZEPRIL], the “% PB” value is given as 97%.
In the case of `CNCCCC1c2ccccc2C=Cc2ccccc21` [PROTRIPTYLINE], the “% PB” value is given as 92%.
In the case of `CCOC(=O)C1=C(C)NC(C)=C(C(=O)OC)C1c1cccc([N+](=O)[O-])c1` (stereo not shown) [NITRENDIPINE], the “% PB” value is listed as 98%.
In the case of `Fc1ccc([C@@H]2CCNC[C@H]2COc2ccc3c(c2)OCO3)cc1` [PAROXETINE], the “% PB” value is given as 95%.
In the case of `O=C(O)c1cc(-c2ccc(F)cc2F)ccc1O` [DIFLUNISAL], the “% PB” value is given as 99.9%.
In the case of `COC(=O)C1=C(C)NC(C)=C(C(=O)OC(C)C)C1c1cccc2nonc12` (stereo not shown) [ISRADIPINE], the “% PB” value is listed as 97%.
For `CCOC(=O)C1=C(COCCN)NC(C)=C(C(=O)OC)C1c1ccccc1Cl` (stereo not shown) [AMLODIPINE], the “% PB” value is given as 93%.
In the case of `COc1ccc(Cl)cc1C(=O)NCCc1ccc(S(=O)(=O)NC(=O)NC2CCCCC2)cc1` [GLYBURIDE], the “% PB” value is given as 99.8%.
For `O=C1Nc2ccc(Cl)cc2C(c2ccccc2Cl)=NC1O` (stereo not shown) [LORAZEPAM], the “% PB” value is given as 91%.
For `O=C1CN=C(c2ccccc2)c2cc(Cl)ccc2N1` [NORDAZEPAM], the “% PB” value is listed as 97.5%.
In the case of `CN1C(C(=O)Nc2ccccn2)=C(O)c2ccccc2S1(=O)=O` [PIROXICAM], the “% PB” value is given as 98.5%.
In the case of `CCc1cccc2c3c([nH]c12)C(CC)(CC(=O)O)OCC3` (stereo not shown) [ETODOLAC], the “% PB” value is listed as 99.1%.
For `COCCOC(=O)C1=C(C)NC(C)=C(C(=O)OC(C)C)C1c1cccc([N+](=O)[O-])c1` (stereo not shown) [NIMODIPINE], the “% PB” value is listed as 98%.
In the case of `CC(C(=O)O)c1ccc(-c2ccccc2)c(F)c1` (stereo not shown) [FLURBIPROFEN], the “% PB” value is listed as 99.5%.
In the case of `O=C1Nc2ccc(Cl)cc2C(c2ccccc2)=NC1O` (stereo not shown) [OXAZEPAM], the “% PB” value is given as 98.8%.
In the case of `COc1ccc2cc(CCC(C)=O)ccc2c1` [NABUMETONE], the “% PB” value is listed as 99%.
In the case of `O=C(c1ccccc1)c1ccc2n1CCC2C(=O)O` (stereo not shown) [KETOROLAC], the “% PB” value is listed as 99.2%.
In the case of `Cc1ccc(C(=O)c2ccc(CC(=O)O)n2C)cc1` [TOLMETIN], the “% PB” value is given as 99.6%.
For `O=c1[nH]c2ccccc2n1C1CCN(CCCC(c2ccc(F)cc2)c2ccc(F)cc2)CC1` [PIMOZIDE], the “% PB” value is given as 99%.
For `CCN(CC)CCN1C(=O)CN=C(c2ccccc2F)c2cc(Cl)ccc21` [FLURAZEPAM], the “% PB” value is given as 96.6%.
For `O=C1CN=C(c2ccccc2)c2cc(Cl)ccc2N1CC1CC1` [PRAZEPAM], the “% PB” value is given as 95.5%.
In the case of `CC(=O)N1CCN(c2ccc(OCC3COC(Cn4ccnc4)(c4ccc(Cl)cc4Cl)O3)cc2)CC1` (stereo not shown) [KETOCONAZOLE], the “% PB” value is listed as 99%.
For `CCOC(=O)C(C)(C)Oc1ccc(Cl)cc1` [CLOFIBRATE], the “% PB” value is listed as 96.5%.
In the case of `CC1=C(CC(=O)O)c2cc(F)ccc2/C1=C\c1ccc([S+](C)[O-])cc1` (stereo not shown), the “% PB” value is given as 94%.
In the case of `Cc1ccc(-c2nc3ccc(C)cn3c2CC(=O)N(C)C)cc1` [ZOLPIDEM], the “% PB” value is given as 92%.
For `Cc1cnc(C(=O)NCCc2ccc(S(=O)(=O)NC(=O)NC3CCCCC3)cc2)cn1` [GLIPIZIDE], the “% PB” value is given as 98.4%.
In the case of `COC(=O)C1=C(C)NC(C)=C(C(=O)OCCN(C)Cc2ccccc2)C1c1cccc([N+](=O)[O-])c1` (stereo not shown) [NICARDIPINE], the “% PB” value is listed as 99%.
In the case of `CN(C)CCCN1c2ccccc2CCc2ccccc21` [IMIPRAMINE], the “% PB” value is listed as 90.1%.
For `CN1C(=O)C(O)N=C(c2ccccc2)c2cc(Cl)ccc21` (stereo not shown) [TEMAZEPAM], the “% PB” value is listed as 97.6%.
For `O=C(O)C1N=C(c2ccccc2)c2cc(Cl)ccc2NC1=O` (stereo not shown) [CLORAZEPATE], the “% PB” value is given as 96.9%.

Same assay, conditions: training set (Goodman & Gilman) or PDR test set; cited from earlier work
For `COC(=O)[C@H](c1ccccc1Cl)N1CCc2sccc2C1` [clopidogrel], the “% Protein Bound” value is given as 98%.
In the case of `Fc1ccc([C@@H]2CCNC[C@H]2COc2ccc3c(c2)OCO3)cc1` [PAROXETINE], the “% Protein Bound” value is given as 95%.
In the case of `CCc1nc(N)nc(N)c1-c1ccc(Cl)cc1` [PYRIMETHAMINE], the “% Protein Bound” value is given as 87%.
